Results reported in patent US20240238287A1, “PHARMACEUTICAL COMPOSITION FOR PREVENTING OR TREATING CANCER” (priority 2021, published 2024).

Assays:
NCIN87 cells = assay: CyQUANT cell proliferation assay, intestinal subtype cell line; type: cell-based; settings: DON 1, 50, 150 μM, CB839 1, 5, 25 μM, BPTES 5, 10, 25 μM, FIGS. 5 to 7
Method: (§1) NCIN87, an intestinal subtype cell line, and HS746T, a stem-like subtype cell line, were dispensed in a 96-well plate (black) with 5000 cells each, and replaced with glutamine-deficient culture medium (Gibco) the next day. Then, the cell lines were treated with DON (1 μM, 50 μM, 150 μM; selleckchem, cat no. S8620), CB839 (1 μM, 5 μM, 25 μM; cayman, cat no. S7655) or BPTES (5 μM, 10 μM, 25 μM; MCE, cat no. HY-12683) and the treatment time was 0 hours, and the cell culture medium was discarded at 24, […] and 72 hours, and stored in an ultra-low temperature freezer at −80° C. After culturing the cells stored in this way at room temperature, 200 μl of cell lysate containing GR dye contained in the cell viability assay kit (CyQUANT cell proliferation assay, Invitrogen) was placed in each well of the cultured cells and incubated at room temperature for 5 min. Afterwards, The intensity of fluorescence was measured at a wavelength of 480 nm and 520 nm excitation using a fluorescence photometer (thermo, varioskan flash 3001), and the measured value was standardized to the number of cells at 0 hour, quantified in %, and the value was shown in FIGS. 4 to 7.

HS746T cells [1] = assay: CyQUANT cell proliferation / viability assay, stem-like subtype cell line; type: cell-based; settings: for cell proliferation: HS746T, DON 1, 50, 150 μM, CB839 1, 5, 25 μM, BPTES 5, 10, 25 μM, FIGS. 5 to 7; for survival of HS746T, inhibitor with glutamine deficiency vs each alone: Gln(−), PHGDH inhibitor 25 μM, SHMT inhibitor 1 μM, MTHFD2 inhibitor 0.5 μM, FIGS. 9 to 11
Method: as §1
As described in Example 4, after dispensing and incubating the stem-like subtype cell line HS746T, replacing it with a glutamine-deficient culture medium, administering a PHGDH inhibitor (25 μM), SHMT inhibitor (1 μM) or MTHFD2 inhibitor (0.5 μM), and using a cell viability assay kit, the survival rate measured using the cell viability assay kit was shown in FIGS. 9 to 11.

[2] = tested on: GA077 stem-like subtype organoid; assay: Organoid diameter by optical microscopy; type: cell-based; settings: CB839 5 μM alone, D1 to D4, FIG. 8
[3] = tested on: glutamine-dependent liver cancer cells; settings: cited from earlier work
SEM-type GC cells [4] = assay: Cell death by GLS/PHGDH inhibitor cotreatment and antioxidant rescue; type: cell-based; settings: addition of antioxidant
SEM-type GC cells [5] = assay: Mitochondrial ROS estimated by MitoSOX; type: cell-based; settings: NCT503 treatment and glutamine starvation
HS746T cells [6] = assay: Amount of NADP; type: cell-based; settings: PHGDH-inhibited cells with glutamine deficiency
HS746T cells [7] = assay: Ratio of reduced (GSH) to oxidized glutathione (GSSG); type: cell-based; settings: HS746T cultured without glutamine plus PHGDH inhibition

Compound | cell proliferation (NCIN87 cells) | cell proliferation (HS746T cells [1]) | survival of HS746T, inhibitor with glutamine deficiency vs each alone (HS746T cells [1]) | other results
O=C(Cc1ccccc1)Nc1nnc(CCSCCc2nnc(NC(=O)Cc3ccccc3)s2)s1 [BPTES] | inhibited | not reduced |  | 
O=C(Cc1cccc(OC(F)(F)F)c1)Nc1ccc(CCCCc2nnc(NC(=O)Cc3ccccn3)s2)nn1 [CB839] | inhibited | not reduced |  | organoid size (diameter) [2]: not reduced in size; antitumor effect of single-drug treatment [3]: very limited antitumor effect
[N-]=[N+]=CC(=O)CC[C@H](N)C(=O)O [DON] | inhibited | not reduced |  | 
Cc1c(N2CCN(C)[C@@H](C)C2)ccc2c3c(c(=O)oc12)CN(C(=O)c1ccc(NS(C)(=O)=O)c(OC(F)(F)F)c1)CC3 [MTHFD2i] |  |  | significant synergistic effect | 
CC(=O)N[C@@H](CS)C(=O)O [NAC, N-acetylcysteine] |  |  |  | rescue of cell death induced by cotreatment with CB839 and NCT503 (SEM-type GC cells [4]): partially rescued
Cc1cc(C)nc(NC(=S)N2CCN(Cc3ccc(C(F)(F)F)cc3)CC2)c1 [NCT503] |  |  | significant synergistic effect | mitochondrial ROS estimated by MitoSOX (SEM-type GC cells [5]): highest; amount of NADP (HS746T cells [6]): lowest; ratio of reduced glutathione (GSH) to oxidized glutathione (GSSG) (HS746T cells [7]): decreased
Cc1n[nH]c2c1C(c1cc(CO)cc(-c3ccccc3)c1)(C(C)C)C(C#N)=C(N)O2 (stereo not drawn) [SHMTi] |  |  | significant synergistic effect | 
